Where “and” joins values, the source holds several entries; their conditions need not be identical. Equal values may be shown once.
What was measured:
[1] = target: hα6 + WT hβ2 + hβ3^V9’S nAChR (Homo sapiens, UniProt P17787+Q15825); conditions: 100 μM nicotine; 3 days after cRNA injection
Method: (§1) We planned to introduce identical amounts of cRNA, presumably producing equal amounts of each subunit protein, into oocytes largely due to lack of information about the levels of mRNA for each subunits that compose α6*-nAChRs in neurons or other cells. Concentrations of cRNAs for each nAChR α and β subunits (WT, mutant or variant) were adjusted to 500 ng μL^−1. We provisionally assumed that hα6 or its variants in association with hβ2 or hβ4 subunits would form complexes having 2:3 and/or 3:2 ratios of the indicated subunits and that oocytes also injected with WT or mutant form of β3 subunits (i.e., β3^V9’S) would express nAChR with 2:2:1 ratios of α:β:(β3 or β3^V9’S) subunits. For expression of binary nAChRs (i.e., two subunit containing nAChRs; α + β but not β3) cRNA mixtures were prepared by mixing 1 μL of cRNA for each subunit and an additional μL of RNAse free water (i.e., total volume 3 μL). Similarly for expression of ternary nAChRs [i.e., three subunit containing nAChRs; (α + β) + (β3 or β3^V9’S)] cRNA mixtures were prepared by mixing 1 μL of cRNA for each subunit. Several preparations of each mixture were prepared and stored at −80°C until further use. Injection of 138 nL of cRNA, out of 3 μL cRNA mixtures, into each oocyte would deliver ~23 ng of cRNA for each subunit whether binary or ternary nAChRs are expressed.
(§2) Two to 5 days after injection, oocytes were placed in a small-volume chamber and continuously perfused with OR2. The chamber was grounded through an agarose bridge. The oocytes were voltage-clamped at −70 mV (unless otherwise noted) to measure agonist or antagonist induced currents using Axoclamp 900A and pClamp 10.2 software (Molecular Devices, Sunnyvale, CA). The current signal was low-pass filtered at 10 Hz with the built-in low-pass Bessel filter in the Axoclamp 900A and digitized at 20 Hz with Axon Digidata1440A and pClamp10. […] Drugs (agonists and antagonists) were prepared daily in OR2. Drug was applied using a Valvelink 8.2 perfusion system (Automate scientific, Berkeley, CA). […] Then for the purpose of comparison electrophysiological recordings were performed in a given day in a given batch of oocytes following the same order of injections. […] All hβ4*-nAChR recordings were done in similar conditions to facilitate comparisons between hα6hβ4- and hα6hβ4hβ3-nAChRs. All electrophysiological measurements were conducted or checked in at least two batches of oocytes.
(§3) Raw data was collected and processed in part using pClamp 10.2 (Molecular Devices, Sunnyvale, CA), Origin 7.5 (OriginLab Corporation, Northampton, MA) and a spreadsheet (Excel; Microsoft, Bellevue, WA). Peak current amplitudes (Imax) are reported as mean ± SEM (for results from at least three oocytes, i.e., n = 3).

[2] = target: hα6 + codon optimized hβ2 + hβ3^V9’S nAChR (Homo sapiens, UniProt P17787+Q15825); conditions: 100 μM nicotine
hα6 + codon optimized hβ2 + hβ3^V9’S nAChR, sequence (Q15825 26-494): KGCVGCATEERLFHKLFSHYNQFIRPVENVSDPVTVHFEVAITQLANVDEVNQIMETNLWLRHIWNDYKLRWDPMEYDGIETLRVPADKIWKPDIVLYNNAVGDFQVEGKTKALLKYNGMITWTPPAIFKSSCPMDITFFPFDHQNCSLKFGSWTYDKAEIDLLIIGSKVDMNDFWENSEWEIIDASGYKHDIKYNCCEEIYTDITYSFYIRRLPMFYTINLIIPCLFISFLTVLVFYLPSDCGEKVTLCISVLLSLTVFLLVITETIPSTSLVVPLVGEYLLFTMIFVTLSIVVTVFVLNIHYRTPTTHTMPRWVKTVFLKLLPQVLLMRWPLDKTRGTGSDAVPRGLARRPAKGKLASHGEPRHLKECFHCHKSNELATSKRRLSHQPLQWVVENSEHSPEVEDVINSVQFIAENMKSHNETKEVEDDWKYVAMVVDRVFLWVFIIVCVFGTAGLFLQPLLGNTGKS
hα6 + codon optimized hβ2 + hβ3^V9’S nAChR, sequence (P17787 26-502): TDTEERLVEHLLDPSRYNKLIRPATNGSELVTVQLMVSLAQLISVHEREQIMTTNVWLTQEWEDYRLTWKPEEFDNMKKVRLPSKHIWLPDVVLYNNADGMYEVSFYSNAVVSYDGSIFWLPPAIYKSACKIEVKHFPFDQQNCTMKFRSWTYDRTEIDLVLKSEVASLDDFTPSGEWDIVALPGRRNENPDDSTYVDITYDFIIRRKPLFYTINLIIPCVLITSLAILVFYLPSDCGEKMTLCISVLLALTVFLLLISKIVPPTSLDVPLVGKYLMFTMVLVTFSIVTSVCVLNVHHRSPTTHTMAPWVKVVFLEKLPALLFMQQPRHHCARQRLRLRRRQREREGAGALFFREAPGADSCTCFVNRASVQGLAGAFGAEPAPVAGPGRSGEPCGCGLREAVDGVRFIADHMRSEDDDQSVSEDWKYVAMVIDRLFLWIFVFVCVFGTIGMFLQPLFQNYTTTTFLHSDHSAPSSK
hα6 + codon optimized hβ2 + hβ3^V9’S nAChR, sequence (Q05901 22-458 V273S partner): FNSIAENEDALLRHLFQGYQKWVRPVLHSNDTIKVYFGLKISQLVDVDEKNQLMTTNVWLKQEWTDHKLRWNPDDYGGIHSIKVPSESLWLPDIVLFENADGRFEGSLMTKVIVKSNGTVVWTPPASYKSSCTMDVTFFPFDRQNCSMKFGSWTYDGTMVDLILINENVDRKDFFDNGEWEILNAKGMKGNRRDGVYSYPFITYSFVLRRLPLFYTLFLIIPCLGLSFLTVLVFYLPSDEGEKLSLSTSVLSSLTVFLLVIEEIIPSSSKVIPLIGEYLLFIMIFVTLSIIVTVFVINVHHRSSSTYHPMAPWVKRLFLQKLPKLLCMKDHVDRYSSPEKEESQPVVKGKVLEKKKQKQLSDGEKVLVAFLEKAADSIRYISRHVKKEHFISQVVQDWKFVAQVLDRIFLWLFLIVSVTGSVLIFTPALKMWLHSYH
Method: as §1, §2, §3

[3] = target: hα6(A112V) + codon optimized hβ2 + hβ3^V9’S nAChR (Homo sapiens, UniProt P17787+Q15825, A112V); conditions: 100 μM nicotine; oocytes clamped at −70 mV
Method: as §1, §2, §3

[4] = target: hα6(A112V) + hβ4 nAChR (Homo sapiens, UniProt P30926+Q15825, A112V); conditions: 100 μM nicotine; oocytes clamped at −70 mV
Method: as §1, §2, §3

[5] = target: hα6(A184D) + WT hβ2 + hβ3^V9’S nAChR (Homo sapiens, UniProt P17787+Q15825, A184D); conditions: 100 μM nicotine; 3 days after cRNA injection
Method: as §1, §2, §3

[6] = target: hα6(D92E) + WT hβ2 + hβ3^V9’S nAChR (Homo sapiens, UniProt P17787+Q15825, D92E); conditions: nicotine
Method: as §1, §2, §3

[7] = target: hα6(D92E) + codon optimized hβ2 + hβ3^V9’S nAChR (Homo sapiens, UniProt P17787+Q15825, D92E); conditions: 100 μM nicotine; oocytes clamped at −70 mV
Method: as §1, §2, §3

[8] = target: hα6(D92E) + hβ4 nAChR (Homo sapiens, UniProt P30926+Q15825, D92E); conditions: 100 μM nicotine; oocytes clamped at −70 mV
Method: as §1, §2, §3

[9] = target: hα6(I226T) + WT hβ2 + hβ3^V9’S nAChR (Homo sapiens, UniProt P17787+Q15825, I226T); conditions: 100 μM nicotine
hα6(I226T) + WT hβ2 + hβ3^V9’S nAChR, sequence (Q15825 26-494 I226T): as the sequence (Q15825 26-494) above, with I201T counted along it
hα6(I226T) + WT hβ2 + hβ3^V9’S nAChR, sequence (P17787 26-502): as the sequence (P17787 26-502) above
hα6(I226T) + WT hβ2 + hβ3^V9’S nAChR, sequence (Q05901 25-458 V273S partner limits assumed): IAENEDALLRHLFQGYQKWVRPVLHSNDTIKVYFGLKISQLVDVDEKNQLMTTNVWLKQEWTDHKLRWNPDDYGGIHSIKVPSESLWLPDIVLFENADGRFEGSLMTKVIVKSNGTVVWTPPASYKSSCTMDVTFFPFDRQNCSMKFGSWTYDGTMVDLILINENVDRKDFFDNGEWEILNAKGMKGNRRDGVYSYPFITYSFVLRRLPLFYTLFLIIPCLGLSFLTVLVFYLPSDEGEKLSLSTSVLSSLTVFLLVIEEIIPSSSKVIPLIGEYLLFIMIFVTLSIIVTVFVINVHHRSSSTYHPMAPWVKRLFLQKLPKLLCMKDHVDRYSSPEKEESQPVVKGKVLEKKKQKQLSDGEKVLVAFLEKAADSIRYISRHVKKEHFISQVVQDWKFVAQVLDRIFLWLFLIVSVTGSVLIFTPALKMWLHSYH
Method: as §1, §2, §3

[10] = target: hα6(N171K) + WT hβ2 + hβ3^V9’S nAChR (Homo sapiens, UniProt P17787+Q15825, N171K); conditions: nicotine
Method: as §1, §2, §3

[11] = target: hα6(N203T) + codon optimized hβ2 + hβ3^V9’S nAChR (Homo sapiens, UniProt P17787+Q15825, N203T); conditions: 100 μM nicotine; oocytes clamped at −70 mV
Method: as §1, §2, §3

[12] = target: hα6(N203T) + hβ4 + hβ3 nAChR (Homo sapiens, UniProt P30926+Q15825, N203T); conditions: 100 μM nicotine; oocytes clamped at −70 mV
Method: as §1, §2, §3

[13] = target: hα6(N203T) + hβ4 nAChR (Homo sapiens, UniProt P30926+Q15825, N203T); conditions: 100 μM nicotine; oocytes clamped at −70 mV
Method: as §1, §2, §3

[14] = target: hα6(N46K) + WT hβ2 + hβ3^V9’S nAChR (Homo sapiens, UniProt P17787+Q15825, N46K); conditions: nicotine
Method: as §1, §2, §3

[15] = target: hα6(N46K) + codon optimized hβ2 + hβ3^V9’S nAChR (Homo sapiens, UniProt P17787+Q15825, N46K); conditions: 100 μM nicotine; oocytes clamped at −70 mV
Method: as §1, §2, §3

[16] = tested on: hα6(R96H) + WT hβ2 + hβ3^V9’S nAChR; conditions: 100 μM nicotine; higher, p < 0.05
Method: as §1, §2, §3

[17] = target: hα6(S156R) + hβ4 + hβ3 nAChR (Homo sapiens, UniProt P30926+Q15825, S156R); conditions: nicotine
Method: as §1, §2, §3

[18] = target: hα6(S43P) + codon optimized hβ2 + hβ3^V9’S nAChR (Homo sapiens, UniProt P17787+Q15825, S43P); conditions: 100 μM nicotine; oocytes clamped at −70 mV
Method: as §1, §2, §3

hα6 + WT hβ2 + hβ3^V9’S nAChR, sequence (Q15825 26-494): as the sequence (Q15825 26-494) above
hα6 + WT hβ2 + hβ3^V9’S nAChR, sequence (P17787 26-502): as the sequence (P17787 26-502) above
hα6 + WT hβ2 + hβ3^V9’S nAChR, sequence (Q05901 22-458 V273S partner): as the sequence (Q05901 22-458 V273S partner) above

CN1CCC[C@H]1c1cccnc1 [nicotine, L-nicotine]
peak current response [1]: 15 ± 2 nA and 15-30 nA | current response relative to receptor with WT hβ2 ([2]; codon optimized vs. WT hβ2): ~ 31 fold | peak current (Imax, mean ± SE) ([2]; oocytes clamped at −70 mV): 469 ± 75 nA | peak current (Imax, mean ± SE) [3]: 293 ± 24 nA | peak current (Imax, mean ± SE) [4]: 110 ± 22 nA | peak current response [5]: 15-30 nA | current response [6]: did not yield current responses | peak current (Imax, mean ± SE) [7]: 66 ± 20 nA | peak current (Imax, mean ± SE) [8]: 19 ± 2 nA | peak current response ([9]; 3 days after cRNA injection): 15-30 nA | Mean (±SEM) current response ([9]; 5 days after injection): 123 ± 40 nA | current response [10]: did not yield current responses | peak current (Imax, mean ± SE) [11]: 762 ± 253 nA | Mean (±SE) peak current response [12]: 371 ± 68 nA | peak current (Imax, mean ± SE) [13]: 33 ± 3 nA | current response [14]: did not yield current responses | peak current (Imax, mean ± SE) [15]: 118 ± 33 nA | peak current response relative to hα6hβ2hβ3^V9’S-nAChRs [16]: 2-5 fold | current response [17]: did not elicit current responses | peak current (Imax, mean ± SE) [18]: 47 ± 9 nA

— PMC4022547 (Molecular Brain, 2014)
